Data on 15 molecules can be found in PubChem BioAssay (NCI).

Some test systems named below: UO-31 renal; U251 CNS; NCI-H460 lung; HL-60(TB) leukemia; HCC-2998 colon; HOP-62 NSCLC; A549 NSCLC; UACC-257 melanoma; NCI-H226 lung; DU-145 prostate.
Common to all, as to experiment: growth of human tumour cells (NCI), 48 h

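Dose response: 5 concentrations. Exposure: 48 h. Format: 96-well plates. Endpoint: linear interpolation; highest concentration if not reached. GI50: concentration for 50% inhibition of growth. TGI is the concentration that stops growth completely.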 A value given as a limit tells only on which side of the number the result lay.

`CN=NN(C)C(=O)NC`: the TGI with UO-31 renal, in the test on U251 CNS, in the test on NCI-H460 lung, with HL-60(TB) leukemia, with HCC-2998 colon and in the test on HOP-62 NSCLC was greater than 100 µM in each case. The TGI with A549 NSCLC was greater than 100 µM.

Turning to `O=C(CN1CCCCC1)N1CCc2c([nH]c3ccccc23)C1c1cccnc1` (stereo not given), the TGI in the test on UO-31 renal, in the test with U251 CNS, in the test with NCI-H460 lung, in the test with HL-60(TB) leukemia, in the test with UACC-257 melanoma and in the test with HCC-2998 colon was greater than 100 µM each time. The TGI with HOP-62 NSCLC and in the test with A549 NSCLC was greater than 100 µM each time.

For `COC(=O)/C=C/C1C(C(=O)OC)C2(C(=O)OC)CCC1(C(=O)OC)N2` (stereo not given), the TGI with UO-31 renal, in the test with U251 CNS, in the test with NCI-H460 lung, with HL-60(TB) leukemia, with UACC-257 melanoma and with HCC-2998 colon was greater than 100 µM in each case. Besides, the TGI with HOP-62 NSCLC, with A549 NSCLC and in the test with NCI-H226 lung was greater than 100 µM throughout.

For the molecule `COc1ccc(C2C(C#N)=C(N)OC3=C2COc2ccc(F)cc23)cc1OC` (stereo not given), the GI50 in the test on UO-31 renal is 43.9 µM; in the test with U251 CNS, 17 µM; in the test on NCI-H460 lung, 40 µM; in the test on HL-60(TB) leukemia, 34.2 µM; with UACC-257 melanoma, 41.4 µM; with HOP-62 NSCLC, 27.9 µM. Moreover, the GI50 with A549 NSCLC was 27.2 µM; in the test on DU-145 prostate, 28.2 µM; in the test with NCI-H226 lung, 13.9 µM. Moreover, the TGI with UO-31 renal was greater than 100 µM; in the test with U251 CNS, 59.2 µM; in the test on NCI-H460 lung, greater than 100 µM; with HL-60(TB) leukemia it was 70.8 µM; in the test on UACC-257 melanoma, greater than 100 µM; with HOP-62 NSCLC, greater than 100 µM. Moreover, the TGI in the test on A549 NSCLC is 63.8 µM; in the test with DU-145 prostate it was greater than 100 µM; in the test with NCI-H226 lung, 51.1 µM.

Consider `N#CC(/C(=N/NC(=O)C(=O)NN)C(=O)NC12CC3CC(CC(C3)C1)C2)c1ccccc1` (stereo not given), for which the TGI in the test on UO-31 renal, with U251 CNS, with NCI-H460 lung, in the test with HL-60(TB) leukemia, with UACC-257 melanoma and in the test with HCC-2998 colon was greater than 100 µM in each case. For the same molecule, the TGI with HOP-62 NSCLC, with A549 NSCLC and with NCI-H226 lung was greater than 100 µM throughout.

Regarding `CCOC(=O)c1[nH]c(COC(C)=O)c(CCCOC(C)=O)c1CCCOC(C)=O`, the TGI in the test with U251 CNS, with NCI-H460 lung, in the test with HL-60(TB) leukemia, with UACC-257 melanoma, in the test with HCC-2998 colon and in the test on HOP-62 NSCLC was greater than 100 µM throughout. The TGI in the test with A549 NSCLC and in the test on NCI-H226 lung was greater than 100 µM throughout.

As for `CCOC(=O)C1N(S(=O)(=O)c2ccc(C)cc2)CCC12C(c1ccc(OC)cc1)NC1CCCCC12` (stereo not given), the TGI in the test on UO-31 renal, in the test with U251 CNS, in the test with NCI-H460 lung, in the test with HL-60(TB) leukemia, in the test with UACC-257 melanoma and in the test with HCC-2998 colon was greater than 100 µM in each case. Moreover, the TGI in the test on HOP-62 NSCLC, with A549 NSCLC and in the test with NCI-H226 lung was greater than 100 µM each time.

As for `CC1=C(C(=O)Nc2c(C)cccc2C)C(c2ccccc2Cl)C(C(=O)Nc2c(C)cccc2C)=C(C)N1`, the TGI in the test with UO-31 renal, in the test with U251 CNS, in the test on NCI-H460 lung, in the test on HL-60(TB) leukemia, in the test on UACC-257 melanoma and with HCC-2998 colon was greater than 100 µM throughout. For the same molecule, the TGI with HOP-62 NSCLC, in the test on A549 NSCLC and in the test with NCI-H226 lung was greater than 100 µM throughout.

In the case of `O=C(/C=C/c1c(O)ccc2ccccc12)c1ccc2ccccc2c1`, the TGI in the test on UO-31 renal, with U251 CNS, with NCI-H460 lung, with HL-60(TB) leukemia, in the test with UACC-257 melanoma and in the test with HCC-2998 colon was greater than 100 µM throughout. In addition, the TGI in the test with HOP-62 NSCLC, with A549 NSCLC and in the test on NCI-H226 lung was greater than 100 µM throughout.

As for `CCCCCCCCCc1cc(=O)c2c(O)cccc2o1`, the TGI in the test on UO-31 renal is greater than 100 µM; in the test with U251 CNS, greater than 100 µM; in the test with NCI-H460 lung, greater than 100 µM; with HL-60(TB) leukemia, 93.9 µM; in the test with UACC-257 melanoma it was greater than 100 µM; in the test with HCC-2998 colon it was greater than 100 µM. Also, the TGI in the test on HOP-62 NSCLC, in the test on A549 NSCLC and with NCI-H226 lung was greater than 100 µM throughout.

`O=C(CCC(=O)Nc1cccc(Cl)c1)CC(=O)c1ccc(Cl)cc1`: the TGI in the test with UO-31 renal, in the test on NCI-H460 lung, with HL-60(TB) leukemia, with UACC-257 melanoma, with HCC-2998 colon and in the test with HOP-62 NSCLC was greater than 100 µM in each case. Besides, the TGI with A549 NSCLC and in the test with NCI-H226 lung was greater than 100 µM in each case.

As for `CCOC(=O)[C@H](CCCNC(=O)OC(C)(C)C)NCc1ccc(OC)c(OC)c1`, the TGI in the test with UO-31 renal, in the test with U251 CNS, with HL-60(TB) leukemia, in the test with UACC-257 melanoma, in the test on HCC-2998 colon and with HOP-62 NSCLC was greater than 100 µM in each case. Besides, the TGI in the test with A549 NSCLC and with NCI-H226 lung was greater than 100 µM each time.

`O=C(O)Cc1c(O)ccc2ccccc12`: the TGI in the test on U251 CNS, in the test with NCI-H460 lung, in the test with UACC-257 melanoma, in the test on HOP-62 NSCLC, with A549 NSCLC and with DU-145 prostate was greater than 100 µM each time. In the test with NCI-H226 lung, this molecule returned a TGI greater than 100 µM.

As for `O/N=C\c1c(O)ccc2ccccc12`, the TGI is greater than 100 µM in the test on U251 CNS; greater than 100 µM with NCI-H460 lung; 54.9 µM in the test on HL-60(TB) leukemia; greater than 100 µM with UACC-257 melanoma; greater than 100 µM with HCC-2998 colon; greater than 100 µM in the test on HOP-62 NSCLC. Moreover, the TGI with A549 NSCLC and in the test with NCI-H226 lung was greater than 100 µM each time.

As to `N#CC(C#N)=c1[nH]c2cccc3c2-c2c(cccc2c3=C(C#N)C#N)[nH]1`, the TGI in the test on UO-31 renal, in the test with U251 CNS, with NCI-H460 lung, with HL-60(TB) leukemia, with UACC-257 melanoma and in the test on HCC-2998 colon was greater than 100 µM each time. Also, the TGI in the test on HOP-62 NSCLC, in the test on A549 NSCLC and in the test with NCI-H226 lung was greater than 100 µM in each case.
